This data set can be described thus: log P by HPLC on reversed-phase columns (C 18), EEC directive 79/831 Annex V.A8. The format is physicochemical. Particulars: for logP[a]: method [a]; for logP[b]: method [b]. How it is done: The log P values were determined according to EEC directive 79/831 Annex V.A8 by HPLC (High Performance Liquid Chromatography) on reversed-phase columns (C 18), using the methods below:
[a] The LC-MS determination in the acidic range is carried out at pH 2.7 with 0.1% aqueous formic acid and acetonitrile (contains 0.1% formic acid) as mobile phases; linear gradient from 10% acetonitrile to 95% acetonitrile.
[b] The LC-MS determination in the neutral range is carried out at pH 7.8 using the mobile phases 0.001 molar aqueous ammonium bicarbonate solution and acetonitrile; linear gradient from 10% acetonitrile to 95% acetonitrile.

[1] abbreviates: reversed-phase C18 HPLC column, pH 2.7, acidic range, pH 2.7, 0.1% aqueous formic acid / acetonitrile, read-out: log P[a].
[2] abbreviates: reversed-phase C18 HPLC column, pH 7.8, neutral range, pH 7.8, 0.001 molar aqueous ammonium bicarbonate / acetonitrile, read-out: log P[b].

Each structure is given as a SMILES string. Where two headings read alike, the source gives them in different places.

As for `COc1ccc(-n2cnc3sccc3c2=O)cc1SCC(F)(F)F` [Compound 84], the “logP[a]” value came to 2.75 and the “logP[b]” value is on record as 2.71. Take `O=c1c2ccsc2ncn1-c1ccc(Cl)c(SCC(F)(F)F)c1` [Compound 85]: the “logP[a]” value was determined as 3.09 and the “logP[b]” value is reported as 3.03. On to `O=c1c2ccsc2ncn1-c1cc(SCC(F)(F)F)c(Cl)cc1Cl` [Compound 90], for which the “logP[a]” value turned out to be 3.51 and the “logP[b]” value turned out to be 3.42. For `N#Cc1ccc(-n2cnc3sccc3c2=O)cc1SCC(F)(F)F` [Compound 93] the same measures were 2.48 and 2.46.

For the compound `O=c1c2ccsc2ncn1-c1ccc(C(F)(F)F)c(SCC(F)(F)F)c1` [Compound 94], the “logP[a]” value came to 3.27 and the “logP[b]” value worked out at 3.21. As to `O=c1c2ccsc2ncn1-c1cc([S+]([O-])CC(F)(F)F)c(Cl)cc1Cl` (centres unmarked) [Compound 98], the “logP[a]” value is listed as 2.53 and the “logP[b]” value was determined as 2.53. In the case of `O=c1c2ccsc2ncn1-c1ccc(C(F)(F)F)c([S+]([O-])CC(F)(F)F)c1` (centres unmarked) [Compound 99], the “logP[a]” value amounted to 2.54 and the “logP[b]” value amounted to 2.51. As for `Cc1ccc(-n2cnc3ccsc3c2=O)cc1SCC(F)(F)F` [Compound 100], the “logP[a]” value was 2.87 and the “logP[b]” value worked out at 2.79. For `Cc1ccc(-n2cnc3ccsc3c2=O)cc1[S+]([O-])CC(F)(F)F` (centres unmarked) [Compound 101], in that order: 1.82 and 1.81. Consider `N#Cc1ccc(-n2cnc3ccsc3c2=O)cc1SCC(F)(F)F` [Compound 102], for which the “logP[a]” value stood at 2.37 and the “logP[b]” value was determined as 2.31. For `O=c1c2sccc2ncn1-c1ccc(Cl)c(SCC(F)(F)F)c1` [Compound 103] the same measures were 2.90 and 2.84.

Consider `O=c1c2sccc2ncn1-c1ccc(C(F)(F)F)c(SCC(F)(F)F)c1` [Compound 104], for which the “logP[a]” value worked out at 3.09 and the “logP[b]” value is listed as 3.07. For `O=c1c2sccc2ncn1-c1ccc(C(F)(F)F)c([S+]([O-])CC(F)(F)F)c1` (centres unmarked) [Compound 107] the same measures were 2.44 and 2.40. As for `Cc1cc(F)c(-n2cnc3ccsc3c2=O)cc1SCC(F)(F)F` [Compound 109], the “logP[a]” value was found to be 3.50 and the “logP[b]” value worked out at 3.42. `Cc1cc(F)c(-n2cnc3c(Cl)csc3c2=O)cc1SCC(F)(F)F` [Compound 110]: the “logP[a]” value amounted to 3.56 and the “logP[b]” value is recorded as 3.41. `Cc1cc(F)c(-n2cnc3c(Cl)c(Cl)sc3c2=O)cc1SCC(F)(F)F` [Compound 111]: the “logP[a]” value is 4.38 and the “logP[b]” value was determined as 4.24. For `Cc1cc(F)c(-n2cnc3c(Cl)c(Cl)sc3c2=O)cc1[S+]([O-])CC(F)(F)F` (centres unmarked) [Compound 115] the same measures were 3.20 and 3.13. Take `Cc1cc(F)c(NC(=O)C(F)(F)F)cc1SCC(F)(F)F` [Compound X-1, 2,2,2-Trifluoro-N-{2-fluoro-4-methyl-5-[(2,2,2-trifluoroethyl)sulphanyl]phenyl}acetamide]: the chromatographic logP under setting [1] amounted to 3.31.

For `O=C(Nc1cc(SCC(F)(F)F)c(Cl)cc1F)C(F)(F)F` [Compound X-2, N-{4-Chloro-2-fluoro-5-[(2,2,2-trifluoroethyl)sulphanyl]phenyl}-2,2,2-trifluoroacetamide], the chromatographic logP reads like this: under setting [1], 3.34; under setting [2], 3.14.

As to `O=C(Nc1ccc(Cl)c(SCC(F)(F)F)c1)C(F)(F)F` [Compound X-3, N-{4-Chloro-3-[(2,2,2-trifluoroethyl)sulphanyl]phenyl}-2,2,2-trifluoroacetamide], the chromatographic logP was determined as 3.46 under setting [1] and 3.41 under setting [2]. As for `Nc1cc(SCC(F)(F)F)c(Cl)cc1F` [IVa-2, 4-Chloro-2-fluoro-5-[(2,2,2-trifluoroethyl)sulphanyl]aniline], the chromatographic logP was 3.02 under setting [1] and 3 under setting [2]. As to `Nc1ccc(Cl)c(SCC(F)(F)F)c1` [IVa-3, 4-Chloro-3-[(2,2,2-trifluoroethyl)sulphanyl]aniline], the chromatographic logP by setting is: under setting [1], 2.64; under setting [2], 2.69. With `Nc1cc(SCC(F)(F)F)ccc1Cl` [IVa-4, 2-Chloro-5-[(2,2,2-trifluoroethyl)sulphanyl]aniline], the chromatographic logP is, setting by setting: under setting [1], 3; under setting [2], 2.95. `Nc1cc(SCC(F)(F)F)ccc1F` [IVa-5, 2-Fluoro-5-[(2,2,2-trifluoroethyl)sulphanyl]aniline]: the chromatographic logP is, setting by setting: under setting [1], 2.57; under setting [2], 2.53.

As for `Cc1cc(F)c(N)cc1[S+]([O-])CC(F)(F)F` (centres unmarked) [IVb-1, 2-Fluoro-4-methyl-5-[(2,2,2-trifluoroethyl)sulphinyl]aniline], the chromatographic logP came out at 1.77 under setting [1] and 1.72 under setting [2]. For `Cc1cc(F)c(NC(=O)c2cnn(C)c2[N+](=O)[O-])cc1SCC(F)(F)F` [N-{2-Fluoro-4-methyl-5-[(2,2,2-trifluoroethyl)sulphanyl]phenyl}-1-methyl-5-nitro-1H-pyrazole-4-carboxamide] the same measures were 3.22 and 3.16. As to `Cc1cc(F)c(B(O)O)cc1SCC(F)(F)F` [VIIIa-1, {2-Fluoro-4-methyl-5-[(2,2,2-trifluoroethyl)sulphanyl]phenyl}boronic acid], the chromatographic logP reads like this: under setting [1], 2.34; under setting [2], 2.41. `Cc1ccc(B(O)O)cc1SCC(F)(F)F` [VIIIa-7, {4-Methyl-3-[(2,2,2-trifluoroethyl)sulphanyl]phenyl}boronic acid]: the chromatographic logP runs as follows: under setting [1], 2.3; under setting [2], 2.24. With `Cc1cc(F)c(B(O)O)cc1[S+]([O-])CC(F)(F)F` (centres unmarked) [VIIIb-1, {2-Fluoro-4-methyl-5-[(2,2,2-trifluoroethyl)sulphinyl]phenyl}boronic acid], the chromatographic logP runs as follows: under setting [1], 1.38; under setting [2], 1.11. For `Cc1ccc(B(O)O)cc1[S+]([O-])CC(F)(F)F` (centres unmarked) [VIIIb-7, {4-Methyl-3-[(2,2,2-trifluoroethyl)sulphinyl]phenyl}boronic acid], the chromatographic logP worked out at 1.41 under setting [1] and 1.36 under setting [2]. Turning to `Cc1cc(F)c(Br)cc1SCC(F)(F)F` [VIIa-1, 1-Bromo-2-fluoro-4-methyl-5-[(2,2,2-trifluoroethyl)sulphanyl]benzene], the chromatographic logP is 4.3 under setting [1] and 4.34 under setting [2]. As to `Cc1cc(F)c(I)cc1SCC(F)(F)F` [VIIa-1-I, 1-Fluoro-2-iodo-5-methyl-4-[(2,2,2-trifluoroethyl)sulphanyl]benzene], the chromatographic logP was found to be 4.44 under setting [1] and 4.44 under setting [2]. Take `FC(F)(F)CSc1cc(Br)c(Cl)cc1Cl` [VIIa-6, 1-Bromo-2,4-dichloro-5-[(2,2,2-trifluoroethyl)sulphanyl]benzene]: the chromatographic logP by setting is: under setting [1], 4.8; under setting [2], 4.77. For `Cc1ccc(Br)cc1SCC(F)(F)F` [VIIa-7, 5-Bromo-2-methylphenyl-2,2,2-trifluoroethyl sulphide] the same measures were 4.29 and 4.26. For `Cc1ccc(I)cc1SCC(F)(F)F` [VIIa-7-I, 4-Iodo-1-methyl-2-[(2,2,2-trifluoroethyl)sulphanyl]benzene], in that order: 4.49 and 4.48. Regarding `COc1ccc(Br)cc1SCC(F)(F)F` [VIIa-8, 4-Bromo-1-methoxy-2-[(2,2,2-trifluoroethyl)sulphanyl]benzene], the chromatographic logP runs as follows: under setting [1], 3.69; under setting [2], 3.81.

Consider `N#Cc1ccc(Br)cc1SCC(F)(F)F` [VIIa-9, 4-Bromo-2-[(2,2,2-trifluoroethyl)sulphanyl]benzonitrile], for which the chromatographic logP came to 3.21 under setting [1] and 3.16 under setting [2]. As for `FC(F)(F)CSc1cc(Br)ccc1C(F)(F)F` [VIIa-10, 4-Bromo-2-[(2,2,2-trifluoroethyl)sulphanyl]-1-(trifluoromethyl)benzene], the chromatographic logP is, setting by setting: under setting [1], 4.22; under setting [2], 4.2. Take `Cc1cc(C)c(SCC(F)(F)F)cc1Br` [VIIa-11, 1-Bromo-2,4-dimethyl-5-[(2,2,2-trifluoroethyl)sulphanyl]benzene]: the chromatographic logP under setting [1] came to 4.81 and the chromatographic logP under setting [2] was determined as 4.77. In the case of `Cc1cc(F)c(NC(=O)C(F)(F)F)cc1SSc1cc(NC(=O)C(F)(F)F)c(F)cc1C` [XI-1, N,N′-[Disulphanediylbis(6-fluoro-4-methylbenzene-3,1-diyl)]bis(2,2,2-trifluoroacetamide)], under setting [1], the chromatographic logP stood at 4.41. In the case of `O=C(Nc1cc(SSc2cc(NC(=O)C(F)(F)F)c(F)cc2Cl)c(Cl)cc1F)C(F)(F)F` [XI-2, N,N′-[Disulphanediylbis(4-chloro-6-fluorobenzene-3,1-diyl)]bis(2,2,2-trifluoroacetamide)], the chromatographic logP was determined as 4.6 under setting [1] and 3.82 under setting [2]. On to `Cc1ccc(NC(=O)C(F)(F)F)c(F)c1` [XIII-1, 2,2,2-Trifluoro-N-(2-fluoro-4-methylphenyl)acetamide], for which the chromatographic logP under setting [1] amounted to 2.4. For the compound `O=C(Nc1ccc(Cl)cc1F)C(F)(F)F` [XIII-2, N-(4-Chloro-2-fluorophenyl)-2,2,2-trifluoroacetamide], the chromatographic logP was found to be 2.53 (acidic range, pH 2.7, 0.1% aqueous formic acid / acetonitrile, read-out: log P[a]) and 2.4 (neutral range, pH 7.8, 0.001 molar aqueous ammonium bicarbonate / acetonitrile, read-out: log P[b]).

For the origin of these results see patent US9512128B2 (BAYER CROPSCIENCE AG, priority 2012, dated 2016).
